According to publication PMC5607274, “An iterative compound screening contest method for identifying target protein inhibitors using the tyrosine-protein kinase Yes” (Scientific Reports, 2017):

target: T1, human recombinant Yes [a.a. 2–543 (end)] (Homo sapiens, UniProt P07947); test: ADP-Glo kinase assay, inhibition rates of Yes phosphorylation activity (first and second screening); format: biochemical; details: first screening; mean of n = 4 wells; 10 μmol L−1 compound
T1 construct: human recombinant Yes [a.a; 2–543 (end)]; purchased BPS Bioscience 40488
T1 sequence (P07947 2-543): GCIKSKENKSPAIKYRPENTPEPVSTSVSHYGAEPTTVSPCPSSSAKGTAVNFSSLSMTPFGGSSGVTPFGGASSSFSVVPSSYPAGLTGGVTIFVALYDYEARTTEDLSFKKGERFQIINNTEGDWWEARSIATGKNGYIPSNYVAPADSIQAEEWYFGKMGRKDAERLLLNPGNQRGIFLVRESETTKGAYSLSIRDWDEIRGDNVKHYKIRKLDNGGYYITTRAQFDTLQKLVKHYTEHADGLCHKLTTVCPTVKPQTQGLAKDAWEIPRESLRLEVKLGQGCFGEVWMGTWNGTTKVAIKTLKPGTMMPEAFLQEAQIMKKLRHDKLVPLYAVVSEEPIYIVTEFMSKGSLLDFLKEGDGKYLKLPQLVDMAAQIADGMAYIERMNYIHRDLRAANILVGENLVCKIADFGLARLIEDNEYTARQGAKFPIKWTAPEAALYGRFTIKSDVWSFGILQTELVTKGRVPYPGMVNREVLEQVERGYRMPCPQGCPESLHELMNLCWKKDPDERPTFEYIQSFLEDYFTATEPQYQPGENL
Procedure, shortened: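 ADP-Glo luminescence measured inhibition of human recombinant Yes (a.a. 2–543) phosphorylation activity. In the first screen, each compound ran in 4 wells and inhibition rates were averaged. The second screen retested hits as compounds dissolved from fresh powder.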

| Structure (SMILES) | First screening IR (inhibition rate) |
| --- | --- |
| CCOc1ccc(N2C(C)=CC(=C(C#N)c3nc4ccccc4s3)C=C2C)cc1 [Compound Z223690154] | 20% |
| Cn1c(=O)n(CCN2CCOCC2)c(=O)c2c1nc1n2CCN1c1ccc(Oc2ccccc2)cc1 [Compound Z223838602] | 49% |
| O=C(O)c1cc(-c2ccccc2)nc2c1cnn2Cc1ccccc1Cl [Compound Z223844412] | 7% |
| CCn1ncc2c(C(=O)NC(C)C)cc(-c3ccccc3)nc21 [Compound Z223848612] | 6% |
| CCn1ncc2c(C(=O)N(C)Cc3ccccc3)cc(-c3ccccc3)nc21 [Compound Z223859126] | -16% |
| CCN(CC)C(=O)c1cc(-c2cc(C)oc2C)nc2c1cnn2C(C)C [Compound Z223881508] | -12% |
| COC(=O)c1cc(NC(=O)C2=C(Cl)CCCC2)cc(C(=O)OC)c1 [Compound Z223943920] | -1% |
| O=C(O)/C=C/c1ccc(NC(=O)CSC(c2ccccc2)c2ccccc2)cc1 [Compound Z224289160] | -8% |
| CCn1ncc2c(C(=O)Nc3ncc(C)s3)cc(-c3ccccc3)nc21 [Compound Z224316064] | 10% |
| CCn1ncc2c(C(=O)NCc3cccc(OC)c3)cc(-c3ccccc3)nc21 [Compound Z224328394] | 6% |
| O=S(=O)(c1ccccc1Cl)N1CCN(Cc2nc(-c3cccc(C(F)(F)F)c3)no2)CC1 [Compound Z224344580] | -5% |
| CCn1ncc2c(C(=O)N(C)Cc3ccc(SC)cc3)cc(-c3ccccc3)nc21 [Compound Z224588706] | -5% |
| CCn1ncc2c(C(=O)N3CCN(CC(=O)Nc4cccc(C)c4C)CC3)cc(-c3ccccc3)nc21 [Compound Z224933090] | -4% |
| CCn1ncc2c(C(=O)NCc3cc(OC)c(OC)cc3OC)cc(-c3ccccc3)nc21 [Compound Z224953910] | 2% |
| Cc1ccc(-c2cc(C(=O)NC(C)c3ccccn3)c3cnn(C(C)C)c3n2)cc1 (stereo not shown) [Compound Z225035912] | 16% |
| CCn1ncc2c(C(=O)Nc3ccc(F)c([N+](=O)[O-])c3)cc(-c3cccs3)nc21 [Compound Z225316878] | 31% |
| Cc1cccn2c(NC(=O)c3cccc(S(=O)(=O)NC(C)C)c3)c(-c3ccccc3)nc12 [Compound Z225376048] | 0% |
| CCOC(=O)c1[nH]c(C)c(C(=O)CSc2n[nH]c(-c3ccccc3)n2)c1C [Compound Z225443610] | -8% |
| Cc1csc(CNC(=O)c2cc(-c3ccccc3)nc3c2cnn3C(C)C)n1 [Compound Z225893888] | 1% |
| CCN(CC)S(=O)(=O)c1c[nH]c(C(=O)NCc2nc(C)cs2)c1 [Compound Z225896678] | 9% |
| Cc1ccc(-c2cc(C(=O)NC(c3ccccc3F)c3nccn3C)c3cnn(C(C)C)c3n2)s1 (stereo not shown) [Compound Z225919834] | -2% |
| COc1ccc(/C=C/c2noc(C)c2NC(=O)c2cccs2)cc1 [Compound Z226257158] | 4% |
| O=C(NCc1ccc(COCC(F)(F)F)cc1)c1ccc2nc[nH]c2c1 [Compound Z226277016] | 13% |
| CC1CN(C(C)(C)CNC(=O)c2ccc(NS(=O)(=O)c3ccccc3)cc2)CC(C)O1 (stereo not shown) [Compound Z226329302] | 6% |
| O=C(CCNC(=O)c1ccco1)Nc1ccc2nc(N3CCCC3)sc2c1 [Compound Z226430254] | 3% |

| Structure (SMILES) | First screening IR (inhibition rate) |
| --- | --- |
| Nc1nc(CSc2ncc(-c3ccc(F)cc3)o2)nc2ccccc12 [Compound Z226851604] | -34% |
| COCCOC(=O)c1cc(-c2ccc(C)cc2)nc2c1cnn2C(C)C [Compound Z226924464] | 6% |
| CCn1ncc2c(C(=O)OCC#N)cc(-c3cccs3)nc21 [Compound Z227189870] | 2% |
| Cc1cc(COC(=O)c2cc(-c3ccc4c(c3)OCCO4)nc3c2cnn3C(C)C)on1 [Compound Z227321660] | 48% |
| CCCn1c(CSc2ncn(-c3ccccc3)n2)nc2cc(S(=O)(=O)N(C)C)ccc21 [Compound Z227429876] | -10% |
| CCNC(=O)c1cc(-c2ccccc2)nc2c1cnn2Cc1ccccc1 [Compound Z227991512] | 6% |
| CCN(CC)CCn1c(NC(=O)c2ccc(OCC(F)(F)F)nc2)nc2ccccc21 [Compound Z228032620] | 14% |
| CC(=O)NCCNC(=O)c1cc(-c2ccccc2)nc2c1cnn2Cc1ccccc1Cl [Compound Z228081748] | 50% |
| O=C(NCCc1nc2ccccc2[nH]1)c1cc(-c2ccccc2)nc2c1cnn2Cc1ccco1 [Compound Z228153102] | 7% |
| Cc1cc(-c2cc(C(=O)Nc3ccc(N4CCN(C)CC4)nc3)c3cnn(C(C)C)c3n2)c(C)o1 [Compound Z228220646] | 15% |
| O=c1[nH]c(SCc2coc(-c3ccccc3)n2)nc2sccc12 [Compound Z228473210] | -4% |
| NC(=O)COC(=O)c1cc(-c2ccccc2)nc2c1cnn2Cc1ccccc1 [Compound Z228517946] | 4% |
| CNC(=O)NC(=O)COC(=O)c1cc(-c2ccccc2)nc2c1cnn2Cc1ccccc1 [Compound Z228518838] | -8% |
| Cc1cc(COC(=O)c2cc(-c3ccccc3)nc3c2cnn3Cc2ccccc2)no1 [Compound Z228519880] | -10% |
| N#Cc1cccc(/C=C2/C(=O)Nc3ccccc32)c1 [Compound Z228595564] | 8% |
| Cc1nn(C)c2nc(-c3ccccc3)cc(C(=O)Nc3ccc4[nH]c(=O)[nH]c4c3)c12 [Compound Z228695802] | -6% |
| O=C(Nc1cccnc1)C1CCN(C(=O)c2ccc(C(F)(F)F)cc2)CC1 [Compound Z228734424] | -1% |
| Cn1ncc2c(NCC3(c4ccccc4)CC3)ncnc21 [Compound Z229243940] | -5% |
| CC(NC(=O)C(C)N1CCCN(Cc2ccc(C#N)cc2)CC1)c1ccccc1 (stereo not shown) [Compound Z229381330] | -12% |
| Cc1ccccc1-c1cc(C(N)=O)c2cnn(C(C)C)c2n1 [Compound Z229615400] | 14% |
| O=C(Nc1ccc(N2CCOCC2)nc1)c1cc(-c2ccc(Cl)cc2)n[nH]1 [Compound Z229828974] | 8% |
| Cc1ccc(CSCC(=O)NC(Cc2ncc[nH]2)c2ccccc2)cc1 (stereo not shown) [Compound Z230096354] | 28% |
| O=C(CN1C(=O)c2ccccc2C1=O)NCc1cn(Cc2ccccc2)nc1-c1ccccc1 [Compound Z230132198] | 24% |
| CCn1c(C)cc(C(=O)N2CCc3[nH]c4ccccc4c3C2)c1C [Compound Z231937310] | 6% |
| Cc1cccc(N=C2NN=C(c3ccc(CCNS(C)(=O)=O)s3)CS2)c1C [Compound Z232307154] | 37% |

same assay, conditions: second screening, dissolved from fresh powder; n = 4; 10 μmol L−1 compound

| Structure (SMILES) | Second screening IR (inhibition rate) |
| --- | --- |
| Cn1c(=O)n(CCN2CCOCC2)c(=O)c2c1nc1n2CCN1c1ccc(Oc2ccccc2)cc1 [Compound Z223838602] | -4% |
| Cc1cccc(N=C2NN=C(c3ccc(CCNS(C)(=O)=O)s3)CS2)c1C [Compound Z232307154] | -3% |
